In patent US20240226115A1, “AXL INHIBITOR COMPOUNDS” (ARCUS BIOSCIENCES, INC., priority 2021, published 2024):

Tests used:
Axl [1] = molecular target: T1, Axl (Homo sapiens, UniProt P30530); experiment: Axl NanoBRET intracellular kinase assay (Cell Binding); design: host or cells: HEK-293; settings: HEK-293 cells transfected with Axl-NanoLuc fusion vector; displacement of K-5 NanoBRET tracer
T1 sequence (P30530 26-894): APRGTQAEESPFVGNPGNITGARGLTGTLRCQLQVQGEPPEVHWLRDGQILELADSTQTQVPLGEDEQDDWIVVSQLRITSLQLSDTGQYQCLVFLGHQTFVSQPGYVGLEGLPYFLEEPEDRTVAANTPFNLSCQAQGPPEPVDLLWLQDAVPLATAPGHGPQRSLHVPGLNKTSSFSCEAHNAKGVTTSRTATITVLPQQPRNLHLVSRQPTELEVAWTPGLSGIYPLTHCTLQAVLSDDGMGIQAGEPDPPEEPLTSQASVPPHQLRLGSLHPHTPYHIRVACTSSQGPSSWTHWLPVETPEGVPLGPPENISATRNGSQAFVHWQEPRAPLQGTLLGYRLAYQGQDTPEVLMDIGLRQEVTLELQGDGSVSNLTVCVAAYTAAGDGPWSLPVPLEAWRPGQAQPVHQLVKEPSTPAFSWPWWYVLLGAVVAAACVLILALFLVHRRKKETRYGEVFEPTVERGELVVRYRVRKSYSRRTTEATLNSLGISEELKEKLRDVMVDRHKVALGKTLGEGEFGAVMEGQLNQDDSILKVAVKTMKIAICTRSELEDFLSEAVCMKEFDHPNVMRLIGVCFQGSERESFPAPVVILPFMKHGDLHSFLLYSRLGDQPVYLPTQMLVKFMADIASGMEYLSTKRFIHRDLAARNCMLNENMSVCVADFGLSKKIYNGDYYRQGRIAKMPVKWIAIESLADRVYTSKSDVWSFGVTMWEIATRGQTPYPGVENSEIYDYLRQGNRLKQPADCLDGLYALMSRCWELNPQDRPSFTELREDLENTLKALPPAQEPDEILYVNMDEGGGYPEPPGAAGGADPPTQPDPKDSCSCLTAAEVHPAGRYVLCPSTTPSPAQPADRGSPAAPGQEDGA
Protocol: Axl NanoBRET™ intracellular kinase assay (Promega, N2540) was performed according to manufacturer's recommendation. In brief, HEK-293 cells are transiently transfected with Axl-NanoLuc fusion vector (Promega, NV1071), utilizing Fugene HD transfection reagent (Promega, E2311) a day before experiment following manufacturer's recommendation.
The day of the assay, the cells were collected and resuspended in Opti-MEM media (ThermoFisher, 31985070) at 2e5 cells/mL concentration. Testing compounds were serial diluted and dispensed into a white 384 well polystyrene plate at 200 nL in 100% DMSO. 40 μL of resuspended cells is then added per well for a final condition of 8K cells/well with 0.5% DMSO. After one-hour compound pre-incubation at 37° C. and 5% CO2, cells were further incubated with 0.35 μM K-5 NanoBRET tracer for two-hours at 37° C. and 5% CO2. […] of 3× substrate plus Inhibitor solution was prepared according to kits manual and added to the cells followed by a 30 second pulse centrifugation spin. The plate was then immediately read utilizing an Envision (Perkin Elmer) plate reader. The BRET signal is measured by taking the ratio of the emissions reading at 610 nm and 450 nm. Compound binding is based on the decrease BRET signal caused by the displacement of the K-5 tracer. […] IC50 value of compounds was determined by 4-parameter non-linear regression fitting of percent activity in GraphPad Prism software.

Axl [2] = molecular target: T1, Axl; experiment: HTRF KinEASE-TK biochemical potency, AXL; design: purchased Invitrogen; settings: 5 nM AXL, 700 μM ATP
Protocol: (§1) Purified recombinant human AXL, TYRO3 and MER proteins were purchased from Invitrogen™. 10 nM AXL, 2 nM TYRO3 or MER were incubated with varying concentrations of compounds in 50 mM HEPES, pH 7.4, 10 mM MgCl2, 0.01% BSA, 1 mM DTT and 2% DMSO in a total volume of 20 μl in a 384-well microplate (Corning™ #3640) at RT for 1 h. The AXL, TYRO3 and MER enzymatic reaction was initiated by transferring 10 μl of enzyme and compound mixture into 10 μl of 1.6 μM TK Substrate-biotin (HTRF® KinEASE-TK kit, Cisbio) and 1400 μM ATP pre-incubated in 50 mM HEPES, pH 7.4, 10 mM MgCl2, 0.01% BSA, 1 mM DTT in a 384-well microplate (Corning™ #3640) at RT, giving the final reaction conditions: 5 nM AXL, 1 nM TYRO3 or MER, 800 nM TK Substrate-biotin and 700 μM ATP in 50 mM HEPES, pH 7.4, 10 mM MgCl2, 0.01% BSA, 1 mM DTT and 1% DMSO with varying concentrations of compounds. Following 2 h incubation at RT, the AXL, TYRO3 and MER enzymatic reaction was stopped by transfer of 10 μl of reaction into 10 μl of detection mix (400 nM Streptavidin-XL665, 200-fold dilution TK Antibody-Cryptate and detection buffer, HTRF® KinEASE-TK kit, Cisbio) in a white 384-well microplate (Perkin Elmer, OptiPlate 384). After 1 h incubation at RT, the plate was put into a plate reader (Evision) to read at 665/620 nm (acceptor/donor) for HTRF. The value of the DMSO blank (MIN inhibition=100% activity) was used as a negative control. The positive control was established by adding 5 μl of enzyme and DMSO mixture into 10 μl of detection mix followed by addition of 5 μl of TK Substrate-biotin and ATP mixture (MAX inhibition=0% activity). To calculate the percent activity, Equation 1 was used. Ratio665/620 is the value at a given compound concentration: […]

recombinant human TYRO3 = molecular target: T2, recombinant human TYRO3 (Homo sapiens, UniProt Q06418); experiment: HTRF KinEASE-TK biochemical potency, TYRO3; settings: 1 nM TYRO3, 700 μM ATP
T2 construct: purchased Invitrogen
T2 sequence (Q06418 41-890): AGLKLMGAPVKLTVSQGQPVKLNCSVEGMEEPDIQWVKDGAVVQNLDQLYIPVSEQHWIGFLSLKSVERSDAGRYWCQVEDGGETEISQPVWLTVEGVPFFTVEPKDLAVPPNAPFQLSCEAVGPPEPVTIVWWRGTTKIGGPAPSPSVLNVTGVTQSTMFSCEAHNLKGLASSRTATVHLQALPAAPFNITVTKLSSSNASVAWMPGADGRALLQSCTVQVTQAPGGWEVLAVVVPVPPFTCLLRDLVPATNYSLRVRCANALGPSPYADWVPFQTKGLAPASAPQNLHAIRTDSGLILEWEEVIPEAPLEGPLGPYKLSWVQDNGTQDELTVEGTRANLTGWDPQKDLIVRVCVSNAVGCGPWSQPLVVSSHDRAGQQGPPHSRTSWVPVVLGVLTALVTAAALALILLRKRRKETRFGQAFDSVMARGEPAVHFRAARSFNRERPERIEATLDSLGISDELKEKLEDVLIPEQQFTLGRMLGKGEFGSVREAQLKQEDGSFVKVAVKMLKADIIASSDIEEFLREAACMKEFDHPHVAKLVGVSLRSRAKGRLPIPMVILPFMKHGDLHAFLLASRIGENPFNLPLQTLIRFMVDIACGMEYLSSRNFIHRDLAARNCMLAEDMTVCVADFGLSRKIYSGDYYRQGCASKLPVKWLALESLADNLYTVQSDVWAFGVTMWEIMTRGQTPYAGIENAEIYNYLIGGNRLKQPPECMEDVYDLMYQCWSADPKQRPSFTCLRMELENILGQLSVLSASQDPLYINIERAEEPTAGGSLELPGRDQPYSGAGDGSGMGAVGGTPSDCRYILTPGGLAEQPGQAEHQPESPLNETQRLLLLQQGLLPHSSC
Protocol: as §1

| IC50 (Axl [1]) [nM] | IC50 (Axl [2]) [nM] | IC50 (recombinant human TYRO3) [nM] | SMILES |
| --- | --- | --- | --- |
| > 1000 | 100 to 1000 |  | O=C1NCCOc2cc(-c3n[nH]c4ncc(-c5cc(Cl)c6c(c5)CCN(C5CCCC5)C6)cc34)ccc21 [Example 8, 8-[5-(8-Chloro-2-cyclopentyl-1,2,3,4-tetrahydroisoquinolin-6-yl)-1H-pyrazolo[3,4-b]pyridin-3-yl]-2,3,4,5-tetrahydro-1,4-benzoxazepin-5-one] |
| > 1000 | > 1000 |  | FC1(F)Oc2ccc(-c3n[nH]c4ncc(-c5ccc6c(c5)CCN(C5CCCC5)CC6)cc34)cc2O1 [Example 14, 3-Cyclopentyl-7-(3-(2,2-difluorobenzo[d][1,3]dioxol-5-yl)-1H-pyrazolo[3,4-b]pyridin-5-yl)-2,3,4,5-tetrahydro-1H-benzo[d]azepine] |
| > 1000 | < 100 | < 100 | CS(=O)(=O)N1CCc2ccc(-c3cnc4[nH]nc(-c5ccc6c(c5)OCCNC6=O)c4c3)cc2CC1 [Example 18, 8-[5-(3-Methanesulfonyl-2,3,4,5-tetrahydro-1H-3-benzazepin-7-yl)-1H-pyrazolo[3,4-b]pyridin-3-yl]-2,3,4,5-tetrahydro-1,4-benzoxazepin-5-one] |
